{"source": "patent US9238020B2", "about": "“Compositions comprising enzyme-cleavable phenol-modified tapentadol prodrug” (priority 2010, dated 2016)", "key": {"[1]": {"tested_on": "norepinephrine uptake into rat hypothalamus synaptosomes", "test": "In vitro functional norepinephrine uptake assay", "type": "biochemical", "settings": "rat hypothalamus synaptosomes", "procedure": "The general procedure follows the protocol described by S. Perovic and W. E. G. Muller, 1995, Arzneim-Forsch. Drug Res. 45, 1145-1148. More specifically, the assays included each of the compounds indicated in Table 13 and rat hypothalamus synaptosomes incubated with 0.2 μCi/mL [^3H] norepinephrine. For a control reaction, protriptyline was used. The reaction mixtures were incubated at 37° C. for 20 min, and the reaction product of [^3H] norepinephrine incorporation into the synaptosomes was measured by scintillation counting. IC50 values (concentration causing a half-maximal inhibition of control specific activity) were determined by non-linear regression fit using Hill plot software."}, "[2]": {"test": "Plasma and cerebrospinal fluid penetration following IV administration to rats", "type": "in vivo, rat", "settings": "for concentration at 2 min: male, Sprague Dawley, rat, in vivo, TP-1 10 mg/kg, tapentadol 4 mg/kg", "procedure": "Compound TP-1 (which can be prepared as described in the examples herein) at a dose of 10 mg/kg, or tapentadol, at a dose of 4 mg/kg, were dissolved in saline and injected into the tail vein of 4 male Sprague Dawley rats. These doses represent approximately equimole amounts. After 2 minutes, the rats were anesthetized by carbon dioxide asphyxiation, blood samples were drawn and harvested for plasma by centrifugation at 5,400 rpm at 4° C. for 5 min, and 100 μl plasma was transferred from each sample into a fresh tube containing 2 μl of 50% formic acid. The CSF fluid was collected using a 22×1 inch gauge needle connected to polyurethane catheter type MRE-040 tubing (Braintree Scientific, Inc., Braintree, Mass.). The needle was inserted just below the nuchal crest at the area of the foramen magnum, and clear CSF fluid was collected into the catheter and transferred into a collection tube. The CSF samples were centrifuged at 5,400 rpm at 4° C. for 5 min, and 100 μl CSF fluid was transferred from each sample into a fresh tube. The plasma and CSF samples were immediately placed in dry ice and then stored in a −80° C. freezer until analysis by high performance liquid chromatography/mass spectrometry (HPLC/MS). In order to study Compound TP-1 and tapentadol plasma and CSF penetration over time, additional groups of 4 rats were administered compounds as described above and anesthetized at specified time points. Plasma and CSF were collected and analyzed as described above.\nResults in Table 14 are reported, for each group of four rats, as mean concentrations of the indicated compounds in plasma or CSF. Table 14 also provides the plasma-to-CSF (plasma/CSF) partitioning coefficient, i.e., the ratio of concentration in the plasma to concentration in the CSF of the indicated compounds."}, "[3]": {"test": "In vitro stability of Compound TP-1 to household chemicals and enzyme preparations", "type": "physicochemical", "procedure": "Compound TP-1 (which can be prepared as described in the examples herein) was exposed at room temperature (RT) or 80° C. for either 1 or 24 hours (hr) to the following household chemicals: vodka (40% alcohol), baking soda (saturated sodium bicarbonate solution, pH 9), WINDEX® with Ammonia-D (pH 11) and vinegar (5% acetic acid). Compound TP-1 was also exposed to the following enzyme-containing compositions at RT for 1 or 24 hr: GNC® Super Digestive (2 capsules of GNC Super Digestive Enzymes dissolved in 5 mL of water), tenderizer (Adolf's meat tenderizer, primarily papain, dissolved in water to a concentration of 0.123 g/mL to approximate the concentration of a marinade given on the bottle label), and subtilisn (8 tablets of ULTRAZYME® contact lens cleaner (Advanced Medical Optics, Milpitas, Calif.) dissolved in 4 mL water). Samples were incubated as described and aliquots removed at 1 hr and 24 hr and stabilized by adding each to a solution of 50% or 100% of 85% phosphoric acid solution to achieve a final pH of less than or equal to pH 4. The stabilized aliquots were then diluted 4- to 6-fold with water, vortex-mixed and applied to HPLC.\nThe solid black bars indicate the percentage of Compound TP-1 remaining after exposure, and the lightly shaded bars with a black outline indicate the percentage conversion of Compound TP-1 to tapentadol."}, "human μ-opioid receptor": {"target": "human μ-opioid receptor (Homo sapiens, UniProt P35372)", "sequence (P35372 whole entry)": "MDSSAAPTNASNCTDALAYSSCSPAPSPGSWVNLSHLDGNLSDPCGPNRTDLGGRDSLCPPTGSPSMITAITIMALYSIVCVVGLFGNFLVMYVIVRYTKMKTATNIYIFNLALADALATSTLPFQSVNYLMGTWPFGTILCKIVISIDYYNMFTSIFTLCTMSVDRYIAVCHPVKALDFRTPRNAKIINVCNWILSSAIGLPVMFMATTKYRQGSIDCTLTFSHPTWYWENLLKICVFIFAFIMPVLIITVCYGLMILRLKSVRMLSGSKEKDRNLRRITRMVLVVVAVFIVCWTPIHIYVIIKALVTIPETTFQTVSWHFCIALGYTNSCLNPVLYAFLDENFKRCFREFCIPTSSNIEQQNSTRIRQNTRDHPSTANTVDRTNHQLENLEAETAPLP", "test": "In vitro human μ-opioid receptor binding assay ([3H]DAMGO, recombinant HEK-293 cells)", "design": "expressed in transfected cells; host or cells: HEK-293", "settings": "relative to tapentadol", "procedure": "The general procedure follows the protocol described by J.-B. Wang, et al, 1994, FEBS Lett. 338, 217-222. More specifically, the assays included tapentadol or Compound TP-1 (which can be prepared as described in the examples herein) as well as recombinant HEK-293 cells expressing the human μ-opioid receptor on their cell surfaces, reference compound [d-Ala^2,N-Me-Phe^4,Gly^5−ol]-enkephalin (DAMGO), radioligand [^3H]DAMGO (0.5 nM) and non-specific ligand naloxone (10 uM). The reaction mixtures were incubated at 22° C. for 2 hr. The samples were then submitted to scintillation counting.\nIn these assays, the specific binding of a test compound to the receptor is defined as the difference between the total binding and the non-specific binding determined in the presence of an excess of unlabelled ligand. Results are expressed as a percent of control of specific binding and as a percent inhibition of control specific binding obtained in the presence of test compounds. The IC50 values (concentration of competing ligand required for 50% inhibition of [^3H]DAMGO binding), and Hill coefficients (nH) were determined by non-linear regression analysis of competition curves using Hill equation curve fitting."}}, "note": "Like-named read-outs stand apart in the source and are kept apart here.", "data": [{"smiles": "CC[C@@H](c1cccc(OC(=O)N(C)CCNC(=O)[C@H](CCCNC(=N)N)NC(=O)CC(=O)O)c1)[C@@H](C)CN(C)C", "note": "[Compound TP-1, N—[(S)-1-(2-{[3-((1R,2R)-3-dimethylamino-1-ethyl-2-methyl-propyl)-phenoxycarbonyl]-methyl-amino}-ethylcarbamoyl)-4-guanidino-butyl]-malonamic acid]", "values": [{"measurement": "activity as a norepinephrine reuptake inhibitor", "setting": "[1]", "result": "no detectable activity"}, {"measurement": "relative plasma/CSF partitioning coefficient of Compound TP-1 to tapentadol (fold less CSF-penetrant)", "setting": "[2]; 671/10.4", "result": "about 64 fold"}, {"measurement": "concentration at 2 min", "setting": "[2]; rats, IV, 2 minutes after dosing, read-out: Compound conc. in CSF", "result": 65.3, "unit": "ng/mL"}, {"measurement": "concentration at 2 min", "setting": "[2]; rats, IV, 2 minutes after dosing, read-out: Compound conc. in Plasma", "result": 43800, "unit": "ng/mL"}, {"measurement": "Plasma/CSF partitioning coefficient", "setting": "[2]; rats, IV, 2 minutes after dosing, ratio of concentration in plasma to concentration in CSF", "result": 671}, {"measurement": "conversion to tapentadol", "setting": "[3]; all other conditions (household chemicals at RT or 80° C., enzyme preparations at RT, 1 or 24 hr)", "result": "less than 10%"}, {"measurement": "conversion to tapentadol", "setting": "[3]; sodium bicarbonate at 80° C. or Windex at 80° C. for 24 hr", "result": "10-20%"}, {"measurement": "affinity for the μ-opioid receptor, fold less than that of tapentadol", "setting": "human μ-opioid receptor", "result": "at least 200 fold"}]}]}
